Experimental data taken from US10894792B2, “Pesticidally active heterocyclic derivatives with sulfur containing substituents” (SYNGENTA PARTICIPATIONS AG, priority 2017, dated 2021).

How the values were obtained:
Type in all cases: in vivo
[1] = system: Myzus persicae; assay: Activity against Myzus persicae (green peach aphid), roots of pea seedlings in test solution; conditions: 144 h, test rate of 24 ppm, roots of infested pea seedlings in test solution, 6 days
Procedure: Roots of pea seedlings infested with an aphid population of mixed ages were placed directly in the aqueous test solutions prepared from 10′000 DMSO stock solutions. The samples were assessed for mortality 6 days after placing seedlings in test solutions.

[2] = system: Myzus persicae; assay: Activity against Myzus persicae (green peach aphid), sprayed sunflower leaf discs; conditions: foliar, 144 h, application rate of 200 ppm, aphid population of mixed ages, 6 days after infestation
Procedure: (§1) Sunflower leaf discs were placed on agar in a 24-well microtiter plate and sprayed with aqueous test solutions prepared from 10′000 ppm DMSO stock solutions. After drying, the leaf discs were infested with an aphid population of mixed ages. The samples were assessed for mortality 6 days after infestation.

[3] = system: Euschistus heros; assay: Activity against Euschistus heros (neotropical brown stink bug); conditions: 120 h, application rate of 200 ppm, sprayed soybean leaf, N-2 nymphs, 5 days after infestation, read-out: effect in at least one of the two categories (mortality or growth inhibition)
Procedure: Soybean leaf on agar in 24-well microtiter plates were sprayed with aqueous test solutions prepared from 10′000 ppm DMSO stock solutions. After drying the leaf were infested with N-2 nymphs. The samples were assessed for mortality and growth inhibition in comparison to untreated samples 5 days after infestation.

[4] = system: Bemisia tabaci; assay: Activity against Bemisia tabaci (cotton white fly); conditions: foliar, 144 h, application rate of 200 ppm, sprayed cotton leaf discs, adult white flies, 6 days after incubation
Procedure: Cotton leaf discs were placed on agar in 24-well microtiter plates and sprayed with aqueous test solutions prepared from 10′000 ppm DMSO stock solutions. After drying the leaf discs were infested with adult white flies. The samples were checked for mortality 6 days after incubation.

[5] = system: Plutella xylostella; assay: Activity against Plutella xylostella (diamond back moth), artificial diet; conditions: 120 h, application rate of 200 ppm, L2 larvae on artificial diet, 5 days after infestation, read-out: effect in at least one of the two categories (mortality or growth inhibition)
Procedure: (§2) 24-well microtiter plates with artificial diet were treated with aqueous test solutions prepared from 10′000 ppm DMSO stock solutions by pipetting. After drying, the plates were infested with L2 larvae (10 to 15 per well). The samples were assessed for mortality and growth inhibition in comparison to untreated samples 5 days after infestation.

[6] = system: Diabrotica Balteata; assay: Activity against Diabrotica balteata (corn root worm); conditions: 96 h, application rate of 200 ppm, sprayed maize sprouts, L2 larvae, 4 days after infestation, read-out: effect in at least one of the two categories (mortality or growth inhibition)
Procedure: as §2, with “Maize sprouts placed onto an agar layer in 24-well” for “24-well”, “plates” for “plates with artificial diet”, “spraying.” for “pipetting.”, “(6” for “(10”, “10” for “15”, “4” for “5”

[7] = system: Frankliniella occidentalis; assay: Activity against Frankliniella occidentalis (western flower thrips); conditions: foliar, 168 h, application rate of 200 ppm, sprayed sunflower leaf discs, population of mixed ages, 7 days after infestation
Procedure: as §1, with “in” for “in a”, “plates” for “plate”, “[…]” for “10′000 ppm”, “drying” for “drying,”, “a Frankliniella” for “an aphid”, “7” for “6”

[8] = system: Spodoptera littoralis; assay: Activity against Spodoptera littoralis (Egyptian cotton leaf worm); conditions: foliar, 72 h, application rate of 200 ppm, sprayed cotton leaf discs, L1 larvae, 3 days after infestation, read-out: control (mortality, anti-feeding effect, or growth inhibition)
Procedure: Cotton leaf discs were placed onto agar in 24-well microtiter plates and sprayed with aqueous test solutions prepared from 10′000 ppm DMSO stock solutions. After drying the leaf discs were infested with five L1 larvae. The samples were assessed for mortality, anti-feeding effect, and growth inhibition in comparison to untreated samples 3 days after infestation. Control of Spodoptera littoralis by a test sample is given when at least one of the categories mortality, anti-feedant effect, and growth inhibition is higher than the untreated sample.

CCS(=O)(=O)c1cc(C(=O)N=S2(=O)CCOCC2)cnc1-c1nc2cc(C(F)(F)F)ncc2n1C [Compound P2, 5-ethylsulfonyl-6-[3-methyl-6-(trifluoromethyl)imidazo[4,5-c]pyridin-2-yl]-N-(4-oxo-1,4-oxathian-4-ylidene)pyridine-3-carboxamide]
≥ 80%: mortality at 24 ppm [1] | mortality at 200 ppm [2] | percent effect (mortality or growth inhibition) at 200 ppm [3]

CCS(=O)(=O)c1cc(C(=O)N=S(=O)(CC)CC)cnc1-c1nc2cc(C(F)(F)F)ncc2n1C [Compound P3]
≥ 80%: mortality at 24 ppm [1] | mortality at 200 ppm [2] | mortality at 200 ppm [4] | percent effect (mortality or growth inhibition) at 200 ppm [5] | percent effect (mortality or growth inhibition) at 200 ppm [3]

CCS(=O)(=O)c1cc(C(=O)N=S(C)C)cnc1-c1nc2cc(C(F)(F)F)ncc2n1C [Compound P5, N-(dimethyl-λ^4-sulfanylidene)-5-ethylsulfonyl-6-[3-methyl-6-(trifluoromethyl)imidazo[4,5-c]pyridin-2-yl]pyridine-3-carboxamide]
≥ 80%: mortality at 24 ppm [1] | percent effect (mortality or growth inhibition) at 200 ppm [6] | mortality at 200 ppm [2] | mortality at 200 ppm [4] | percent effect (mortality or growth inhibition) at 200 ppm [3]

CCS(=O)(=O)c1cc(C(=O)N=S(C)(C)=O)cnc1-c1nc2cc(C(F)(F)F)nnc2n1C [Compound P6, N-[dimethyl(oxo)-λ^6-sulfanylidene]-5-ethylsulfonyl-6-[7-methyl-3-(trifluoromethyl)imidazo[4,5-c]pyridazin-6-yl]pyridine-3-carboxamide]
≥ 80%: mortality at 24 ppm [1] | percent effect (mortality or growth inhibition) at 200 ppm [6] | mortality at 200 ppm [2] | mortality at 200 ppm [4] | percent effect (mortality or growth inhibition) at 200 ppm [5] | percent effect (mortality or growth inhibition) at 200 ppm [3]

CCS(=O)(=O)c1cc(C(=O)N=S(C)(C)=O)ccc1-c1cn2cnc(C(F)(F)F)cc2n1 [Compound P7, N-[dimethyl(oxo)-λ^6-sulfanylidene]-3-ethylsulfonyl-4-[7-(trifluoromethyl)imidazo[1,2-c]pyrimidin-2-yl]benzamide]
≥ 80%: mortality at 24 ppm [1] | percent effect (mortality or growth inhibition) at 200 ppm [6] | mortality at 200 ppm [2] | mortality at 200 ppm [7] | percent effect (mortality or growth inhibition) at 200 ppm [5]

CCS(=O)(=O)c1cc(C(=O)N=S(C)(=O)CC)cnc1-c1nc2cc(C(F)(F)F)nnc2n1C (stereo not shown) [Compound P9, N-(ethyl-methyl-oxo-λ^6-sulfanylidene)-5-ethylsulfonyl-6-[7-methyl-3-(trifluoromethyl)imidazo[4,5-c]pyridazin-6-yl]pyridine-3-carboxamide]
≥ 80%: mortality at 24 ppm [1] | percent effect (mortality or growth inhibition) at 200 ppm [6] | mortality at 200 ppm [2] | mortality at 200 ppm [4] | mortality at 200 ppm [7] | percent effect (mortality or growth inhibition) at 200 ppm [5] | percent effect (mortality or growth inhibition) at 200 ppm [3]

CCS(CC)=NC(=O)c1cnc(-c2nc3cc(C(F)(F)F)ncc3n2C)c(S(=O)(=O)CC)c1 [Compound P10, N-(diethyl-λ^4-sulfanylidene)-5-ethylsulfonyl-6-[3-methyl-6-(trifluoromethyl)imidazo[4,5-c]pyridin-2-yl]pyridine-3-carboxamide]
≥ 80%: mortality at 24 ppm [1] | mortality at 200 ppm [2] | mortality at 200 ppm [4] | mortality at 200 ppm [7] | percent effect (mortality or growth inhibition) at 200 ppm [5] | percent effect (mortality or growth inhibition) at 200 ppm [3]

CCS(=O)(=O)c1cc(C(=O)N=S2(=O)CCC2)cnc1-c1nc2cc(C(F)(F)F)ncc2n1C [Compound P12, 5-ethylsulfonyl-6-[3-methyl-6-(trifluoromethyl)imidazo[4,5-c]pyridin-2-yl]-N-(1-oxothietan-1-ylidene)pyridine-3-carboxamide]
≥ 80%: mortality at 24 ppm [1] | mortality at 200 ppm [2] | mortality at 200 ppm [4] | percent effect (mortality or growth inhibition) at 200 ppm [5]

CCS(=O)(=O)c1cc(C(=O)N=S2(=O)CCOCC2)cnc1-c1nc2cc(C(F)(F)F)cnc2n1C [Compound P17, 5-ethylsulfonyl-6-[3-methyl-6-(trifluoromethyl)imidazo[4,5-b]pyridin-2-yl]-N-(4-oxo-1,4-oxathian-4-ylidene)pyridine-3-carboxamide]
≥ 80%: mortality at 24 ppm [1] | mortality at 200 ppm [2] | percent effect (mortality or growth inhibition) at 200 ppm [5] | percent effect (mortality or growth inhibition) at 200 ppm [3]

CCS(=O)(=O)c1cc(C(=O)N=S(=O)(CC)CC)cnc1-c1nc2cc(C(F)(F)F)nnc2n1C [Compound P18, N-[diethyl(oxo)-λ^6-sulfanylidene]-5-ethylsulfonyl-6-[7-methyl-3-(trifluoromethyl)imidazo[4,5-c]pyridazin-6-yl]pyridine-3-carboxamide]
≥ 80%: mortality at 24 ppm [1] | percent effect (mortality or growth inhibition) at 200 ppm [6] | mortality at 200 ppm [2] | mortality at 200 ppm [4] | percent effect (mortality or growth inhibition) at 200 ppm [5] | percent effect (mortality or growth inhibition) at 200 ppm [3]

CCS(=O)(=O)c1cc(C(=O)N=S(=O)(CC)CC)cnc1-c1nc2cc(C(F)(F)F)cnc2n1C [Compound P19, N-[diethyl(oxo)-λ^6-sulfanylidene]-5-ethylsulfonyl-6-[3-methyl-6-(trifluoromethyl)imidazo[4,5-b]pyridin-2-yl]pyridine-3-carboxamide]
≥ 80%: mortality at 24 ppm [1] | mortality at 200 ppm [2] | mortality at 200 ppm [4] | mortality at 200 ppm [7] | percent effect (mortality or growth inhibition) at 200 ppm [5] | percent effect (mortality or growth inhibition) at 200 ppm [3]

CCS(=O)(=O)c1cc(C(=O)N=S(=O)(CC)CC)cnc1-c1cn2cnc(C(F)(F)F)cc2n1 [Compound P21, N-[diethyl(oxo)-λ^6-sulfanylidene]-5-ethylsulfonyl-6-[7-(trifluoromethyl)imidazo[1,2-c]pyrimidin-2-yl]pyridine-3-carboxamide]
≥ 80%: percent control (mortality, anti-feedant effect or growth inhibition) at 200 ppm [8] | percent effect (mortality or growth inhibition) at 200 ppm [5] | percent effect (mortality or growth inhibition) at 200 ppm [3]

CCS(=O)(=O)c1cc(C(=O)N=S(C)(C)=O)ccc1-c1nc2cc(C(F)(F)F)cnc2n1C [Compound P22, N-[dimethyl(oxo)-λ^6-sulfanylidene]-3-ethylsulfonyl-4-[3-methyl-6-(trifluoromethyl)imidazo[4,5-b]pyridin-2-yl]benzamide]
≥ 80%: mortality at 24 ppm [1] | percent effect (mortality or growth inhibition) at 200 ppm [6] | mortality at 200 ppm [2] | mortality at 200 ppm [4] | mortality at 200 ppm [7] | percent effect (mortality or growth inhibition) at 200 ppm [5] | percent effect (mortality or growth inhibition) at 200 ppm [3]

CCS(=O)(=O)c1cc(C(=O)N=S(=O)(CC)CC)ccc1-c1nc2cc(C(F)(F)F)cnc2n1C [Compound P23, N-[diethyl(oxo)-λ^6-sulfanylidene]-3-ethylsulfonyl-4-[3-methyl-6-(trifluoromethyl)imidazo[4,5-b]pyridin-2-yl]benzamide]
≥ 80%: mortality at 24 ppm [1] | percent effect (mortality or growth inhibition) at 200 ppm [6] | mortality at 200 ppm [2] | mortality at 200 ppm [4] | percent effect (mortality or growth inhibition) at 200 ppm [5] | percent effect (mortality or growth inhibition) at 200 ppm [3]

CCS(=O)(=O)c1cc(C(=O)N=S(C)(C)=O)cnc1-n1cc2cnc(C(F)(F)F)cc2n1 [Compound P24, N-[dimethyl(oxo)-λ^6-sulfanylidene]-5-ethylsulfonyl-6-[6-(trifluoromethyl)pyrazolo[4,3-c]pyridin-2-yl]pyridine-3-carboxamide]
≥ 80%: percent control (mortality, anti-feedant effect or growth inhibition) at 200 ppm [8] | percent effect (mortality or growth inhibition) at 200 ppm [6] | percent effect (mortality or growth inhibition) at 200 ppm [5]
